Reference: patent publication US8163756B2 (priority 2004, dated 2012)

Key:
Format in all cases: biochemical
KDR kinase = KDR kinase (Homo sapiens, UniProt P35968, DEL940-989/E990V); assay: KDR kinase assay K2 (as K1, 2.1 nM enzyme, 2 h pre-incubation, 1.0 mM ATP); settings: Method K2; read-out: KDR Data (IC50)
Protocol: (§1) IC50 values were calculated from a series of percent inhibition values determined at a range of inhibitor concentrations using software routines as implemented in the GraphPad Prism software package.

Abl kinase = molecular target: T1, Abl kinase (Homo sapiens, UniProt P00519); assay: Abl kinase assay A1 (pyruvate kinase/lactate dehydrogenase coupled, spectrophotometric); settings: Method A1; read-out: Abl Data (IC50)
T1 sequence (P00519 229-512): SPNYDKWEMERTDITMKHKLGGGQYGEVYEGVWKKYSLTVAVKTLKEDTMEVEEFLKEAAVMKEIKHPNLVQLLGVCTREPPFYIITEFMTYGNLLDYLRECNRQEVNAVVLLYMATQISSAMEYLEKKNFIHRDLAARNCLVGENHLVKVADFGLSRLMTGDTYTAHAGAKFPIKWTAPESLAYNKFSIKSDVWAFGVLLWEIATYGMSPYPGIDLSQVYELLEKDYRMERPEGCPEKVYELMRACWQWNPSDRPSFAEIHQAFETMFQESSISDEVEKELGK
Protocol: as §1

B-Raf(V599E) kinase = B-Raf(V599E) kinase (Homo sapiens, UniProt P15056, V600E); assay: B-Raf(V599E) kinase assay B1 (construct 1, MEK1 substrate, coupled spectrophotometric)
B-Raf(V599E) kinase, sequence (P15056 with tags, fused parts or gaps V600E): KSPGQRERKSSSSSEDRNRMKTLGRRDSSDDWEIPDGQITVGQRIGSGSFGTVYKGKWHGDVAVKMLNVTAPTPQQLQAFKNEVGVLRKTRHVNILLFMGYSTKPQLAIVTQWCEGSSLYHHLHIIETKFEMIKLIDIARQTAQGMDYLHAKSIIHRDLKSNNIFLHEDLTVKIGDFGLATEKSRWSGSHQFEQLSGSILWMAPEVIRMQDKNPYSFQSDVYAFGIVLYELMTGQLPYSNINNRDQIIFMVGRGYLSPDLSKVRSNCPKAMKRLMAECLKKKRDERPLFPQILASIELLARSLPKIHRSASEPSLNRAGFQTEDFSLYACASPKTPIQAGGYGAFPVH
Protocol: The test compounds were incubated with the reaction mixtureat 30° C. for 2 h. […] The reaction rate was calculated using the […] time frame. […] IC50 values were calculated from a series of percent inhibition values determined at a range of inhibitor concentrations using software routines as implemented in the GraphPad Prism software package.

[1] = molecular target: phosphorylated p-38-alpha kinase (Homo sapiens, UniProt Q16539); assay: P-38 alpha kinase assay P1 (coupled spectrophotometric, 2 h pre-incubation); settings: method P1 (2 h pre-incubation); read-out: P-38 Data
phosphorylated p-38-alpha kinase, sequence (Q16539 1-360 isoform Q16539-2): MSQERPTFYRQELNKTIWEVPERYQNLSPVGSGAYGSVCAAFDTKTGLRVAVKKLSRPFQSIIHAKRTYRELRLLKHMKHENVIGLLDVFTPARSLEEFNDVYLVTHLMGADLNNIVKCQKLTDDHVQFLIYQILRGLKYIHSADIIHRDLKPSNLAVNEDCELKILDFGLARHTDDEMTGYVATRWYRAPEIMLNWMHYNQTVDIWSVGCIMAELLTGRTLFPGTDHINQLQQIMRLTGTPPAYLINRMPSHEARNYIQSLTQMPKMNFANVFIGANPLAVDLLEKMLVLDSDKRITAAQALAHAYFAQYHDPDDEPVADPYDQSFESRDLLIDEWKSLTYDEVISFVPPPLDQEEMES

KDR kinase, sequence (P35968 with tags, fused parts or gaps DEL940-989/E990V): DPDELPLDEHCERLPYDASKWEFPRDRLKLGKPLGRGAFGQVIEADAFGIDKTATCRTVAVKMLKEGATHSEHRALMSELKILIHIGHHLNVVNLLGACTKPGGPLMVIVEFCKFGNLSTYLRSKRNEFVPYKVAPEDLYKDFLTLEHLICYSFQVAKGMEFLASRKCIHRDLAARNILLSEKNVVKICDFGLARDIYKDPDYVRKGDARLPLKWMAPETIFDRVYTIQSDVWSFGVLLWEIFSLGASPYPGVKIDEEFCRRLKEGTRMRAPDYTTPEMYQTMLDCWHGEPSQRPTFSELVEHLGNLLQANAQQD

Row | SMILES | IC50 (KDR kinase) | IC50 (Abl kinase) | IC50 (B-Raf(V599E) kinase) | IC50 [1]
1 | CC(C)(C)c1cc(NC(=O)Nc2cccc(F)c2F)n(-c2cccc(C#N)c2)n1 [Example 4, 1-[3-t-butyl-1-(3-cyan-phenyl)-1H-pyrazol-5-yl]-3-(2,3-difluorophenyl)urea] | 310 nM | 2900 nM | – | –
2 | CC(C)(C)c1cc(NC(=O)Nc2ccc(Cl)cc2)n(-c2cccc(C#N)c2)n1 [Example 7, 1-(3-t-butyl-1-(3-cyanophenyl)-1H-pyrazol-5-yl)-3-(4-chlorophenyl)urea] | 870 nM | 5200 nM | 8.2 nM | –
3 | CC(C)(C)c1cc(NC(=O)Nc2cc(F)c(F)c(F)c2)n(-c2cccc(C#N)c2)n1 [Example 12, 1-(3-t-butyl-1-(3-cyanophenyl)-1H-pyrazol-5-yl)-3-(3,4,5-trifluorophenyl)urea] | 280 nM | 390 nM | – | –
4 | COc1cccc(-n2nc(C(C)(C)C)cc2NC(=O)Nc2ccc(C#N)cc2)c1 [Example 16, 1-(3-t-butyl-1-(3-methoxyphenyl)-1H-pyrazol-5-yl)-3-(4-cyanophenyl)urea] | 3400 nM | 5900 nM | – | 1300 nM
5 | COc1ccc(-n2nc(C(C)(C)C)cc2NC(=O)Nc2cccc(Cl)c2Cl)cc1 [Example 18, 1-[3-t-butyl-1-(4-methoxyphenyl)-1H-pyrazol-5-yl]-3-(2,3-dichlorophenyl)urea] | 240 nM | 830 nM | 458 nM | –
6 | CCOC(=O)Cc1cccc(-n2nc(C(C)(C)C)cc2NC(=O)Nc2cccc(Cl)c2Cl)c1 [Example 23, ethyl 2-(3-(3-t-butyl-5-(3-(2,3-dichlorophenyl)ureido)-1H-pyrazol-1-yl)phenyl)acetate] | 1000 nM | 3800 nM | 4.8 nM | 21 nM
7 | CC(C)(C)c1cc(NC(=O)Nc2cccc(Cl)c2Cl)n(-c2ccc3ncccc3c2)n1 [Example 52, 1-[3-t-butyl-1-(quinolin-6-yl)-1H-pyrazol-5-yl]-3-(2,3-dichlorophenyl)urea] | 63 nM | 140 nM | 1.8 nM | 23 nM
8 | CC(C)(C)c1cc(NC(=O)Nc2cc(F)c(F)cc2F)n(-c2ccc3ncccc3c2)n1 [Example 53, 1-(3-t-butyl-1-(quinolin-6-yl)-1H-pyrazol-5-yl)-3-(2,4,5-trifluorophenyl)urea] | 490 nM | 360 nM | 4.5 nM | –
9 | CC(C)(C)c1cc(NC(=O)Nc2cc(F)cc(F)c2F)n(-c2ccc3ncccc3c2)n1 [Example 54, 1-(3-t-butyl-1-(quinolin-6-yl)-1H-pyrazol-5-yl)-3-(2,3,5-trifluorophenyl)urea] | 240 nM | 120 nM | 4.8 nM | –
10 | CC(C)(C)c1cc(NC(=O)Nc2ccc(Cl)cc2)n(-c2cnc3ccccc3c2)n1 [Example 56, 1-(3-t-butyl-1-(quinolin-3-yl)-1H-pyrazol-5-yl)-3-(4-chlorophenyl)urea] | 3100 nM | 4800 nM | – | –
11 | CC(C)(C)c1cc(NC(=O)Nc2cccc(Cl)c2Cl)n(-c2ccc3c(c2)CCN3S(C)(=O)=O)n1 [Example 108, 1-(3-t-butyl-1-(1-(methylsulfonyl)indolin-5-yl)-1H-pyrazol-5-yl)-3-(2,3-dichlorophenyl)urea] | 13 nM | 250 nM | 1.5 nM | 9 nM
12 | CC(C)(C)c1cc(NC(=O)Nc2cc(F)c(F)cc2F)n(-c2ccc3c(c2)CCN3S(C)(=O)=O)n1 [Example 110, 1-(3-t-butyl-1-(1-(methylsulfonyl)indolin-5-yl)-1H-pyrazol-5-yl)-3-(2,4,5-tri-fluorophenyl)urea] | 140 nM | 360 nM | 3.4 nM | –
13 | CC(C)(C)c1cc(NC(=O)Nc2cccc3ccccc23)n(-c2ccc3c(c2)CCC(=O)N3)n1 [Example 198, 1-(3-t-butyl-1-(2-oxo-1,2,3,4-tetrahydroquinolin-6-yl)-1H-pyrazol-5-yl)-3-(naphthalen-1-yl)urea] | 1300 nM | – | – | 59 nM
14 | CC(C)(C)c1cc(NC(=O)Nc2ccc(F)c(F)c2F)n(-c2cccc(C#N)c2)n1 [Example 210, 1-(3-t-butyl-1-(3-cyanophenyl)-1H-pyrazol-5-yl)-3-(2,3,4-trifluorophenyl)urea] | 110 nM | – | – | 24 nM
15 | CC(C)(C)c1cc(NC(=O)Nc2cc(F)ccc2F)n(-c2cccc(C#N)c2)n1 [Example 213, 1-(3-t-butyl-1-(3-cyanophenyl)-1H-pyrazol-5-yl)-3-(2,5-difluorophenyl)urea] | 210 nM | – | 12 nM | 67 nM
16 | COc1cccc(-n2nc(C(C)(C)C)cc2NC(=O)Nc2ccc(Cl)cc2Cl)c1 [Example 233, 1-(3-t-butyl-1-(3-methoxyphenyl)-1H-pyrazol-5-yl)-3-(2,4-dichlorophenyl)urea] | 410 nM | – | 28 nM | 50 nM
17 | COc1ccc(-n2nc(C(C)(C)C)cc2NC(=O)Nc2ccccc2F)cc1 [Example 237, 1-[3-t-butyl-1-(4-methoxyphenyl)-1H-pyrazol-5-yl]-3-(2-fluorophenyl)urea] | 4900 nM | – | 59 nM | 580 nM
18 | COc1ccc(-n2nc(C(C)(C)C)cc2NC(=O)Nc2cccc(Cl)c2)cc1 [Example 240, 1-[3-t-butyl-1-(4-methoxyphenyl)-1H-pyrazol-5-yl]-3-(3-chlorophenyl)urea] | 3700 nM | – | 50 nM | 470 nM
19 | CC(C(N)=O)c1cccc(-n2nc(C(C)(C)C)cc2NC(=O)Nc2cccc(Cl)c2Cl)c1 (centres unmarked) [Example 249, 1-(1-(3-(1-amino-1oxopropan-2-yl)phenyl)-3-t-butyl-1H-pyrazol-5-yl)-3-(2,3-dichlorophenyl)urea] | 590 nM | – | 4.5 nM | 11 nM
20 | CC(C)(C)c1cc(NC(=O)Nc2cccc(F)c2F)n(-c2ccc3c(c2)CCNC(=O)C3)n1 [Example 334, 1-(3-t-butyl-1-(2-oxo-2,3,4,5-tetrahydro-1H-benzo[d]azepin-7-yl)-1 H-pyrazol-5-yl)-3-(2,3-difluorophenyl)urea] | 3400 nM | – | 11 nM | –
21 | CC(C)(C)c1cc(NC(=O)Nc2cccc3ccccc23)n(-c2cccc(CCO)c2)n1 [Example 341, 1-{3-t-butyl-1-[3-(2-hydroxyethyl)phenyl]-1H-pyrazol-5-yl}-3-(naphthalen-1-yl)urea] | 5500 nM | – | – | 27 nM
22 | CC(C)(C)c1cc(NC(=O)Nc2cccc(Cl)c2Cl)n(-c2cccc(CC(=O)N3CCC(C(=O)O)CC3)c2)n1 [Example 345, 1-[2-(3-{3-t-butyl-5-[3-(2,3-dichlorophenyl)ureido]-1H-pyrazol-1-yl}phenyl)acetyl]piperidine-4-carboxylic acid] | 2900 nM | – | – | 19 nM
23 | CC(C)(C)c1cc(NC(=O)Nc2cccc3ccccc23)n(-c2ccc3c(c2)CNCC3)n1 [Example 349] | 4100 nM | – | – | 30 nM
24 | CC(C)(C)c1cc(NC(=O)Nc2cccc(F)c2F)n(-c2ccc(CC(=O)O)cc2)n1 [Example 382, 2-(4-(3-t-butyl-5-(3-(2,3-difluorophenyl)ureido)-1H-pyrazol-1-yl)phenyl)acetic acid] | 10300 nM | – | 77 nM | –
25 | CC(C)(C)c1cc(NC(=O)Nc2cccc(Cl)c2Cl)n(-c2cccc(CC(=O)N3CCS(=O)(=O)CC3)c2)n1 [Example 396, 1-(3-t-butyl-1-{3-[2-(1,1-dioxo-1[…]6-thiomorpholin-4-yl)-2-oxoethyl]phenyl}-1H-pyrazol-5-yl)-3-(2,3-dichlorophenyl)urea] | 3100 nM | – | 32 nM | –
26 | CCOC(=O)C1CCCN(C(=O)Cc2cccc(-n3nc(C(C)(C)C)cc3NC(=O)Nc3cccc(Cl)c3Cl)c2)C1 (centres unmarked) [Example 397, ethyl 1-[2-(3-{3-t-butyl-5-[3-(2,3-dichlorophenyl)ureido]-1H-pyrazol-1-yl}phenyl)acetyl]piperidine-3-carboxylate] | 3400 nM | – | 57 nM | –
27 | CC(C)(C)c1cc(NC(=O)Nc2cccc(Cl)c2Cl)n(-c2cccc(CC(=O)N3CCCC(C(=O)O)C3)c2)n1 (centres unmarked) [Example 398, 1-[2-(3-{3-t-butyl-5-[3-(2,3-dichlorophenyl)-ureido]-1H-pyrazol-1-yl}-phenyl)acetyl]piperidine-3-carboxylic acid] | 2700 nM | – | 12 nM | 26 nM
28 | CC(C)(C)c1cc(NC(=O)Nc2cccc(Cl)c2Cl)n(-c2cccc(CC(=O)N3CCC[C@@H]3C(=O)O)c2)n1 [Example 400, (2R)-1-[2-(3-{3-t-butyl-5-[3-(2,3-dichlorophenyl)ureido]-1H-pyrazol-1-yl}phenyl)acetyl]pyrrolidine-2-carboxylic acid] | 3700 nM | – | 19 nM | 46 nM
29 | CCOC(=O)C1CCN(C(=O)Cc2ccc(-n3nc(C(C)(C)C)cc3NC(=O)Nc3cccc(Cl)c3Cl)cc2)CC1 [Example 497] | 1200 nM | – | 47 nM | –
30 | CC(C)(C)c1cc(NC(=O)Nc2cccc(Cl)c2Cl)n(-c2ccc(CC(=O)N3CCC(C(=O)O)CC3)cc2)n1 [Example 498, 1-[2-(4-{3-t-butyl-5-[3-(2,3-dichlorophenyl)ureido]-1H-pyrazol-1-yl}-phenyl)acetyl]piperidine-4-carboxylic acid] | 1700 nM | – | 52 nM | 9 nM
